The results in this text go back to patent US4965352A, “Anthracycline derivatives having cytostatic activity” (Behringwerke Aktiengesellschaft, priority 1986, dated 1990).

Data set [1] can be described thus: Acute toxicity in NMRI mice after intravenous injection. As to conditions: mouse, in vivo, survival on day 14, Litchfield-Wilcoxon. On the procedure: Details of the test method are evident from the procecdure for determining the formation of colonies given herein after. Appropriate tests on NMRI mice were carried out to determine the acute toxicity of the anthracycline derivatives according to the invention. Details of the test method are evident from the procedure for determining the acute toxicity given hereinafter.
Determination of the acute toxicity entailed intravenous injection of various doses of the test substance, disolved in 0.5 ml of physiological saline solution, in NMRI mice on day 0. Control groups received only 0.5 ml of physiological saline solution. 5 mice were used for each concentration of the test substance. The number of surviving mice was determined on day 14, and the LD50 was determined therefrom by the Litchfield-Wilcoxon method. The toxicity of the compounds described here is compiled in Table 1, comparing with adriamycin.

The subject of data set [2] is mouse L1210 leukemia cells. Nature of the data set: Formation of L1210 leukemia cell colonies in soft agar. The format is cell-based. As to conditions: for IC50: Mus musculus, L1210, 168 h, read-out: Cytotoxicity (continuous incubation) IC50; for cytostatic activity compared with adriamycin: result in words, test not named. On the procedure:
The cytostatic activity of the compounds according to the invention has been tested using mouse L1210 leukemia cells. Use was made for this of the formation of L1210 leukemia cell colonies in soft agar. This method is used to detect the effect of the test substances on the growth behavior of the cells over several generations. In this connection, with a cell cycle time of 10 to 12 hours, about 14 consecutive generations are observed in the 7-day duration of the test. In this test, the substances having cytostatic activity according to the invention bring about a reduction, compared with an untreated control sample, in the number of colonies which is to be observed.
500 leukemia cells per plate were incubated with various concentrations of the test substance at 37° C. for 1 hour. The cells were then washed twice with McCoy 5A medium, 0.3% agar was added, and finally the mixture was poured into Petri dishes. Controls were incubated only with fresh medium. In place of the incubation for one hour, in some cases various concentrations and test substances were mixed with the upper agar layer in order in this way to achieve continuous exposure of the cells throughout the incubation time. After the agar had solidified, the plates were incubated in an incubator at 37° C. for 7 days (5% by volume CO2, 95% relative atmospheric humidity). Thereafter the number of colonies with a diameter of more than 60μ which had formed was counted. The results have been stated as the number of colonies in treated agar plates as a percentage of the untreated control. The dose-effect graph obtained in this way was used to determine the IC50 as a measure of the activity of the substance. The results for the compounds described here are compiled in Table 1, comparing with adriamycin.

In brackets after ≈: the same amount, converted by molar mass.

In general, LD50 refers to the dose expected to kill half of the subjects tested. For orientation: IC50 means the concentration needed to halve the response being measured. In data set [1], `COc1cccc2c1C(=O)c1c(O)c3c(c(O)c1C2=O)C[C@@](O)(C(=O)CO)C[C@@H]3O[C@H]1C[C@H](N)[C@H](O)[C@H](C)O1` [Adriamycin, reference compound] registered an LD50 at 336 h of 26.5 mg/kg. For the same compound, in data set [2], the half-inhibitory concentration (IC50) was 0.02 µg/mL (≈ 0.0368 µM).

Compound `CC[C@@]1(O)C[C@H](O[C@H]2C[C@H](N(C)C)[C@H](OC(C)=O)[C@H](C)O2)c2c(O)c3c(c(O)c2[C@H]1C(=O)OC)C(=O)c1c(O)ccc(O)c1C3=O` [Compound 1, 7-O-(4'-O-acetyl--L-rhodosaminyl)-ε-isorhodomycinone] displayed a median lethal dose (LD50) at 336 h in data set [1] of 89 mg/kg. Moreover, in data set [2], the IC50 is 0.028 µg/mL (≈ 0.0435 µM) and the “cytostatic activity compared with adriamycin” value is given as “comparable with that of adriamycin”.

`CC[C@@]1(O)C[C@H](O[C@H]2C[C@H](N(C)C)[C@H](O)[C@H](C)O2)c2c(O)c3c(c(O)c2[C@H]1C(=O)OC)C(=O)c1c(O)ccc(O)c1C3=O` [Compound 2, 7-O-(α-L-rhodosaminyl)-ε-isorhodomycinone] displayed an LD50 at 336 h in data set [1] of 50 to 100 mg/kg. For the same compound, in data set [2], the IC50 was 0.035 µg/mL (≈ 0.0582 µM) and the “cytostatic activity compared with adriamycin” value is reported as “comparable with that of adriamycin”.

Regarding `CC[C@@]1(O)C[C@H](O[C@H]2C[C@H](NC(=O)C(F)(F)F)[C@H](O)[C@H](C)O2)c2c(O)c3c(c(O)c2[C@H]1C(=O)OC)C(=O)c1c(O)ccc(O)c1C3=O` [Compound 5, 7-O-(3'-N-trifluoroacetyl-α-L-daunosaminyl)-ε-isorhodomycinone], the IC50 in data set [2] was 0.4 µg/mL (≈ 0.597 µM).

For `CC[C@@]1(O)C[C@H](O[C@H]2C[C@H](NC)[C@H](OC(C)=O)[C@H](C)O2)c2c(O)c3c(c(O)c2[C@H]1C(=O)OC)C(=O)c1c(O)ccc(O)c1C3=O` [Compound 8, 7-O-(4'-O-acetyl-3'-N-methyl-α-L-daunosaminyl)-ε-isorhodomycinone], in data set [2], the IC50 turned out to be 0.1 µg/mL (≈ 0.159 µM).

For the compound `CC[C@@]1(O)C[C@H](O[C@H]2C[C@H](NC)[C@H](O)[C@H](C)O2)c2c(O)c3c(c(O)c2[C@H]1C(=O)OC)C(=O)c1c(O)ccc(O)c1C3=O` [Compound 9, 7-O-(3'-N-methyl--L-daunosaminyl)-ε-isorhodomycinone], in data set [2], the IC50 is 0.028 µg/mL (≈ 0.0477 µM).
